# Test results as given in EP4613730A1, “LIPIDIC ALKYNYLCARBINOLS WITH ANTI-BACTERIAL AND ANTI-TUBERCULOSIS ACTIVITY” (priority 2024, dated 2025).
# Where two headings read alike, the source gives them in different places.
# Assays:
# Format in all cases: cell-based
# [1] = Cytotoxicity evaluation on HCT-116 cell line (SRB); details: human, HCT-116 cells, 72 hours treatment, read-out: Anti-HCT116 CC50
# Experimental: (§1) The biological activity of the compounds of the present invention were evaluated. The activity against mycobacteria (Mtb) was assessed by minimum inhibitory concentration values (MIC, µM) determination. The selectivity index (SI) is defined as: SI = (CC50)/(MIC) [formula] wherein CC50 refers to the half maximal cytotoxic concentration of compounds towards particular eukaryotic cells, either for HCT116 cells and/or VERO cells; MIC refers to the minimum inhibitory concentration of the compounds towards mycobacteria.
# Human HCT-116 colon cancer cells were seeded in 96-well plates (2500 cells/well) 24 hours before being treated for 72 hours with the tested compounds. Cells were grown and treated in DMEM 10% FBS. For each compound, 11 concentrations, corresponding to twofold serial dilutions from the maximum concentration, were evaluated, with each concentration tested in duplicate. DMSO was set at 0.5% final concentration in each well, including in the untreated conditions. At the end of the treatment, cells were fixed 1 hour at 4°C by addition of cold 10 % trichloroacetic acid to a final 3.33 % concentration, then washed 4 times with water. The plates were dried and the cells stained for 30 minutes with 0.057 % (wt/vol) Sulforhodamine B (SRB) in 1% acetic acid, then washed 4 times with 1% acetic acid and dried. The dye was resuspended by a 1 h 30 incubation in 200 µL of 10 mM Tris-base and the absorbance at 490 nm measured with a plate reader (µquant, Bio-tek). For normalization, the background value was subtracted to each value, the duplicates averaged and the untreated condition set to 100% cell viability. CC50 were computed from at least three independent experiments using the GraphPad Prism software using a non-linear regression to a four-parameter logistic curve (log[inhibitor] vs response; variable slope).
# M. abscessus = test: Antibacterial activity MIC, M. abscessus; details: Mycobacteroides abscessus
# [2] = Cytotoxicity evaluation on Vero cell line (MTT); details: Vero cells, read-out: Anti-VERO CC50
# Experimental: as §1
# Cytotoxicity evaluation of the tested molecules by MTT assay was performed on the Vero cell line. Briefly, cells (5.10^4 cells/mL) in 100 µL of complete medium [MEM supplemented with 10% fetal calf serum (FCS), 2 mM L-glutamine and antibiotics (100U/mL penicillin and 100 µg/mL streptomycin)] were seeded into each well of 96-well plates and incubated at 37 °C in a humidified 5% CO2 with 95% air atmosphere. After a 24 h incubation, 100 µL of medium with various product concentrations and appropriate controls were added and the plates were incubated for 72 h at 37 °C. Each plate-well was then microscope-examined for detecting possible precipitate formation before the medium was aspirated from the wells. 100 µL of MTT solution (0.5 mg/mL in complete MEM) were then added to each well. Cells were incubated for 1 h at 37 °C and the MTT solution was then removed, and DMSO (100 µL/well) was added to dissolve the resulting formazan crystals. Plates were shaken vigorously (300 rpm) for 5 min. The absorbance was measured at 570 nm with a microplate spectrophotometer (BIOTEK Eon). DMSO was used as blank and SDS as positive control. CC50 were calculated by non-linear regression analysis processed on dose-response curves, using TableCurve 2D V5 software.
# [3] = system: Mycobacterium tuberculosis strain H37Rv; test: Mycobacterial growth inhibition assay (colorimetric MTT micro assay, MIC)
# M. kansasii = test: Antibacterial activity MIC, M. kansasii; details: Mycobacterium kansasii
# M. smegmatis = test: Antibacterial activity MIC, M. smegmatis; details: Mycolicibacterium smegmatis
# C. glutamicum = test: Antibacterial activity MIC, C. glutamicum; details: Corynebacterium glutamicum
# E. coli = test: Antibacterial activity MIC, E. coli; details: Escherichia coli
# [4] = M. tuberculosis (Table 4), read-out: Antibacterial activity MIC M. tuberculosis
# [5] = M. tuberculosis H37Rv, 7H9 broth, 6 days incubation then MTT 24 h, read-out: Anti-Mtb MIC
# [6] = read-out: Antibacterial activity MIC M. tuberculosis
SMILES,CC50 at 72 h ([1]; HCT-116 colon cancer cells) [µM],CC50 at 72 h ([2]; African green monkey) [µM],"MIC [3, 5] [µM]",further results
"CCCCCCCCCCCC(O)C#CCO (racemic) [Compound 1, Pentadec-2-yne-1,4-diol]",60,89,1.25,"MIC (M. abscessus): 2.5 µM; MIC [3, 4]: 1.25 µM"
"CCCCCCCCCCC[C@@H](O)C#CCO [(R)-1, (R)-Pentadec-2-yne-1,4-diol]",–,–,1.25,–
C=C=C[C@@H](O)C#CCCCCCCCCCCCC [(R)-19],–,–,–,"MIC (M. kansasii): 5 µM; MIC (M. smegmatis): 10 µM; MIC (C. glutamicum): > 10 µM; MIC (E. coli): > 10 µM; MIC [3, 6]: 2.5 µM"
"CCCCCCCCCCC[C@@H](O)C#C[C@H](O)CC [(R,R)-6, (3R,6R)-heptadec-4-yne-3,6-diol]",–,–,2.5,–
"CCCCCCCCCCC[C@H](O)C#C[C@H](O)CC [(R,S)-6, (3R,6S)-heptadec-4-yne-3,6-diol]",–,–,2.5,–
"CCCCCCCCCCC[C@H](O)C#CCO [(S)-1, (S)-Pentadec-2-yne-1,4-diol]",–,–,1.25,–
C=C=C[C@H](O)C#CCCCCCCCCCCCC [(S)-19],–,–,–,"MIC (M. kansasii): 2.5 µM; MIC (M. smegmatis): 10 µM; MIC (C. glutamicum): > 10 µM; MIC (E. coli): > 10 µM; MIC [3, 6]: 2.5 µM"
C#C[C@H](O)C#CCCCCCCCCCCCC [(S)-20],–,–,–,"MIC (M. kansasii): 1.2 µM; MIC (M. smegmatis): 2.5 µM; MIC (C. glutamicum): 10 µM; MIC (E. coli): > 10 µM; MIC [3, 6]: 1.2 µM"
"CCCCCCCCCCC[C@@H](O)C#C[C@@H](O)CC [(S,R)-6, (3S,6R)-heptadec-4-yne-3,6-diol]",–,–,2.5,–
"CCCCCCCCCCC[C@H](O)C#C[C@@H](O)CC [(S,S)-6, (3S,6S)-heptadec-4-yne-3,6-diol]",–,–,2.5,–
"CCCCCCCCCCCCC#CCO [Comparative example A, reference compound]",–,–,5,"CC50 at 72 h [1]: 120 µM; MIC (M. abscessus): 20 µM; CC50 at 72 h ([2]; monkey): 187 µM; MIC [3, 4]: 5 µM"
"C=CC(O)C#CC(O)CCCCCCCCCCC (centres unmarked) [Compound 2, Heptadec-1-en-4-yne-3,6-diol]",2,7.6,–,MIC ([3]; read-out: Anti-Mtb MIC): 1.25 µM
"C=C=CC(O)C#CC(O)CCCCCCCCCCC (centres unmarked) [Compound 3, Octadeca-1,2-dien-5-yne-4,7-diol]",9,8,–,MIC ([3]; read-out: Anti-Mtb MIC): 2.5 µM
"C#CC(O)C#CC(O)CCCCCCCCCCC (centres unmarked) [Compound 4, Heptadeca-1,4-diyne-3,6-diol]",4,2.5,–,MIC ([3]; read-out: Anti-Mtb MIC): 0.3 µM
"CCCCCCCCCCCC(O)C#CC(O)c1ccccc1 (centres unmarked) [Compound 5, 1-Phenylpentadec-2-yne-1,4-diol]",50,46.5,1.25,–
"CCCCCCCCCCCC(O)C#CC(O)CC (centres unmarked) [Compound 6, Heptadec-4-yne-3,6-diol]",40,43.2,2.5,"MIC (M. abscessus): 10 µM; MIC [3, 4]: 2.5 µM"
"CCCCCCCCCCCC(O)C#CC(O)C1CC1 (centres unmarked) [Compound 7, 1-Cyclopropylpentadec-2-yne-1,4-diol]",50,43.9,0.3,–
"CCCCCCCCCCCC(O)C#CC(O)C(C)(C)C (centres unmarked) [Compound 8, 2,2-Dimethylheptadec-4-yne-3,6-diol]",20,–,5,–
"CCCCCCCCCCCC(O)C#CC(O)C(CC)CC (centres unmarked) [Compound 9, 3-Ethyloctadec-5-yne-4,7-diol]",20,–,5,–

SMILES,CC50 at 72 h ([1]; HCT-116 colon cancer cells) [µM],CC50 at 72 h ([2]; African green monkey) [µM],"MIC [3, 5] [µM]",further results
"CCCCCCCCCCCC(O)C#CC(O)C1CCCC1 (centres unmarked) [Compound 10, 1-Cyclopentylpentadec-2-yne-1,4-diol]",20,–,5,–
"CCCCCCCCCCCC(O)C#CC(O)C1CCCCC1 (centres unmarked) [Compound 11, 1-Cyclohexylpentadec-2-yne-1,4-diol]",50,–,5,–
"C=CC(O)C#CCC(O)CCCCCCCCCC (centres unmarked) [Compound 12, Heptadec-1-en-4-yne-3,7-diol]",2,12.5,–,MIC ([3]; read-out: Anti-Mtb MIC): 1.25 µM
"C=C=CC(O)C#CCC(O)CCCCCCCCCC (centres unmarked) [Compound 13, Octadeca-1,2-dien-5-yne-4,8-diol]",12,–,–,MIC ([3]; read-out: Anti-Mtb MIC): 0.6 µM
"C#CC(O)C#CCC(O)CCCCCCCCCC (centres unmarked) [Compound 14, Heptadeca-1,4-diyne-3,7-diol]",2,174,–,MIC ([3]; read-out: Anti-Mtb MIC): 0.6 µM
"CCCCCCCCCCC(O)CC#CC(O)c1ccccc1 (centres unmarked) [Compound 15, 1-Phenylpentadec-2-yne-1,5-diol]",41,75,2.5,–
"CCCCCCCCCCC(O)CC#CC(O)CC (centres unmarked) [Compound 16, Heptadec-4-yne-3,7-diol]",51,75,5,–
"CCCCCCCCCCC(O)CC#CC(O)C1CC1 (centres unmarked) [Compound 17, 1-Cyclopropylpentadec-2-yne-1,5-diol]",40,44.5,0.6,–
"C=CC(O)C#CCCCCCCCCCCCC (centres unmarked) [Compound 18, Heptadec-1-en-4-yn-3-ol]",0.2,1,–,MIC ([3]; read-out: Anti-Mtb MIC): 2.5 µM
"C=C=CC(O)C#CCCCCCCCCCCCC (centres unmarked) [Compound 19, Octadeca-1,2-dien-5-yn-4-ol]",2.7,–,2.5,–
"C#CC(O)C#CCCCCCCCCCCCC (centres unmarked) [Compound 20, Heptadeca-1,4-diyn-3-ol]",0.1,0.8,–,MIC ([3]; read-out: Anti-Mtb MIC): 1.2 µM
"CCCCCCCCCCCCC#CC(O)c1ccccc1 (centres unmarked) [Compound 21, 1-Phenylpentadec-2-yn-1-ol]",50,58.7,1.2,–
"CCCCCCCCCCCCC#CC(O)CC (centres unmarked) [Compound 22, Heptadec-4-yn-3-ol]",12,> 50,–,"MIC (M. abscessus): > 20 µM; MIC [3, 4]: 2.5 µM"
"CCCCCCCCCCCCC#CC(O)C1CC1 (centres unmarked) [Compound 23, 1-Cyclopropylpentadec-2-yn-1-ol]",60,158,> 10,–
"CCCCCCCCCCCCC#CC(O)C(C)(C)C (centres unmarked) [Compound 24, 2,2-Dimethylheptadec-4-yn-3-ol]",60,–,> 10,–
"CCCCCCCCCCCCC#CC(O)C(CC)CC (centres unmarked) [Compound 25, 3-Ethyloctadec-5-yn-4-ol]",125,–,> 10,–
"CCCCCCCCCCCCC#CC(O)C1CCCC1 (centres unmarked) [Compound 26, 1-Cyclopentylpentadec-2-yn-1-ol]",100,–,> 10,–
"CCCCCCCCCCCCC#CC(O)C1CCCCC1 (centres unmarked) [Compound 27, 1-Cyclohexylpentadec-2-yn-1-ol]",60,–,10,–
C=C=CC(O)C#CCCCCCCCCC (centres unmarked) [Compound 28],–,–,–,"MIC (M. kansasii): 10 µM; MIC (M. smegmatis): > 10 µM; MIC (C. glutamicum): > 10 µM; MIC (E. coli): > 10 µM; MIC [3, 6]: 5 µM"
